# From PubChem BioAssay AID1963847 (Molecular Pharmacology Branch, DTP, NCI, 2024)
# System: 415267-285-R-J2-PDC complex spheroid viability
# Test: Anticancer human tumor 415267-285-R-J2-PDC patient-derived breast carcinoma cell line growth inhibition [POLQ]
# Settings: for IC50: curve of first compound; for viability, T/C: stronger effect = lower value
# Description: Multicellular complex tumor spheroid response to Polymerase (POL) inhibitors (novobiocin, ART-558, RP6685) in combination with a variety of drugs and investigational agents in selected tumor cell lines
# The POL inhibitors (novobiocin, ART-558, and RP6685) were evaluated both individually and in combination with standard of care and investigational anticancer small molecules within a complex spheroid model of solid tumors. . Complex spheroids include a stromal component modeled by human endothelial cells (HUVEC) and fibroblasts modeled by human mesenchymal stem cells (MSCs). The concentration ranges selected for each drug and investigational agent were based upon clinically achievable concentrations if the clinical Cmax of the agent was known.
# Compounds. The drugs and investigational agents: novobiocin (NSC847541), ART-558 (NSC835418), RP-6685 (NSC848927), peposertib (NSC802822), ceralasertib (NSC780249), elimusertib (NSC800525), camonsertib (NSC841442), AZD-1390 (NSC803789), olaparib (NSC753686), talazoparib (NSC767125), rucaparib (NSC756644), sotorasib (NSC818433), MRTX-1133 (NSC836407), SN-38 (NSC673596), topotecan (NSC609699), epotoside (NSC141540), doxorubicin (NSC123127), gemcitabine (NSC613327), 5-fluorouracil (NSC19893), paclitaxel (NSC125973), vemurafenib (NSC761431), MSA-2 (NSC828583), SN-011 (NSC837082), adavosertib (NSC754352), prexasertib (NSC758257), carboplatin (NSC241240) and oxaliplatin (NSC266046), were obtained from the National Cancer Institute (NCI) Developmental Therapeutics Program Chemical Repository (21). The FDA-approved anticancer drug set is available from the Developmental Therapeutics Program at https://dtp.cancer.gov/organization/dscb/obtaining/. […] The stock solutions were prepared in dimethyl sulfoxide (DMSO, Sigma-Aldrich, St. Louis, MO, cat. D2650), except for the platinum compounds which were prepared in saline (Quality Biological, Gaithersburg, MD, cat. 114-055-101), at 800-fold the tested concentration and stored at -70 degrees C prior to their use. All drugs and investigational agents were tested over a range starting from a high concentration at or near the clinical Cmax and decreasing in half-log increments. If the clinical Cmax for an agent had not been determined, the highest concentration tested was 10 microM, except for SN-38, which was tested at a high concentration of 1 microM.
# Cell Culture. All cells were maintained in an incubator at 37 degrees C and 5% CO2 with 95% humidity. The PDC lines were cultured according to standard operating procedures established by the NCI PDMR (https://pdmr.cancer.gov). Table 3 of the manuscript, lists the cell lines along with the number of the three cell types plated to form the mct-spheroids and media for tumor cell growth. After thawing, all PDC lines, except 997537-175-T-J1-PDC and 415267-285-R-J2-PDC, were cultured in Matrigel-coated flasks prepared with a working solution of 1X Ham's F-12 nutrient mix, without supplementation (Thermo Fisher Scientific, cat. 11765054), 100 U/mL penicillin-streptomycin (Thermo Fisher Scientific, cat. 15140122), and 2.5% Matrigel (Corning Inc., Corning, NY, cat. 354248) for the first three passages. The two PDC lines 997537-175-T-J1-PDC and 415267-285-R-J2-PDC were cultured on uncoated flasks. The 857933-349-R-J2-PDC line was cultured in 6C/Colon 1B media containing advanced DMEM/F-12 (Thermo Fisher Scientific, cat. 12634028), 10 mM HEPES (Thermo Fisher Scientific, cat. 15630080), 1X GlutaMAX supplement (Thermo Fisher Scientific, cat. 35050061), 0.1 mg/mL primocin (InvivoGen, San Diego, CA, cat. ant-pm-2), 10% defined fetal bovine serum, heat inactivated (HyClone Laboratories Inc., Logan, UT, cat. SH30070.03HI), 50% L-WRN conditioned media (ATCC, cat. CRL-3276), 1.25 mM N-Acetyl-L-cysteine (Sigma-Aldrich, cat. A9165), 10 mM nicotinamide (Sigma-Aldrich, cat. N0636), 1X B-27 supplement (Thermo Fisher Scientific, cat. 17504044), 1X N-2 supplement (Thermo Fisher Scientific, cat. […]
# [1] = second compound 0.0316 µM, first compound 0.0316 µM
# [2] = second compound 0.0316 µM, first compound 0.1 µM
# [3] = second compound 0.0316 µM, first compound 0.316 µM
# [4] = second compound 0.0316 µM, first compound 1 µM
# [5] = second compound 0.1 µM, first compound 0.0316 µM
# [6] = second compound 0.1 µM, first compound 0.1 µM
# [7] = second compound 0.1 µM, first compound 0.316 µM
# [8] = second compound 0.1 µM, first compound 1 µM
# [9] = second compound 0.316 µM, first compound 0.0316 µM
# [10] = second compound 0.316 µM, first compound 0.1 µM
# [11] = second compound 0.316 µM, first compound 0.316 µM
# [12] = second compound 0.316 µM, first compound 1 µM
# [13] = second compound 1 µM, first compound 0.0316 µM
# [14] = second compound 1 µM, first compound 0.1 µM
# [15] = second compound 1 µM, first compound 0.316 µM
# [16] = second compound 1 µM, first compound 1 µM
# [17] = second compound 3.16 µM, first compound 0.0316 µM
# [18] = second compound 3.16 µM, first compound 0.1 µM
# [19] = second compound 3.16 µM, first compound 0.316 µM
# [20] = second compound 3.16 µM, first compound 1 µM
# [21] = second compound 10 µM, first compound 0.0316 µM
# [22] = second compound 10 µM, first compound 0.1 µM
# [23] = second compound 10 µM, first compound 0.316 µM
# [24] = second compound 10 µM, first compound 1 µM
# 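Note: spheroids exposed to compounds for one week before readout.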
# 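Throughout, for viability, T/C: luminescence used as stand-in measure of viable cells; 100% = DMSO vehicle control viability.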
structure (smiles),measurement,setting,value
C=CCn1c(=O)c2cnc(Nc3ccc(N4CCN(C)CC4)cc3)nc2n1-c1cccc(C(C)(C)O)n1 + Nc1ccc(C#CCN(C(=O)Cc2ncc(C(F)(F)F)cc2C(F)(F)F)c2ccc(F)cc2)nn1,IC50,second compound 0.0316 µM,447 nM
same,IC50,second compound 0.1 µM,404 nM
same,IC50,second compound 0.316 µM,427 nM
same,IC50,second compound 1 µM,396 nM
same,IC50,second compound 3.16 µM,342 nM
same,IC50,second compound 10 µM,318 nM
same,"viability, T/C","second compound 0.0316 µM, first compound 0.00316 µM",95.1%
same,"viability, T/C","second compound 0.0316 µM, first compound 0.01 µM",102%
same,"viability, T/C",[1],94.8%
same,"viability, T/C",[2],98.2%
same,"viability, T/C",[3],69%
same,"viability, T/C",[4],5.9%
same,"viability, T/C","second compound 0.1 µM, first compound 0.00316 µM",107%
same,"viability, T/C","second compound 0.1 µM, first compound 0.01 µM",104%
same,"viability, T/C",[5],102%
same,"viability, T/C",[6],87.6%
same,"viability, T/C",[7],62.2%
same,"viability, T/C",[8],6.38%
same,"viability, T/C","second compound 0.316 µM, first compound 0.00316 µM",108%
same,"viability, T/C","second compound 0.316 µM, first compound 0.01 µM",108%
same,"viability, T/C",[9],86.9%
same,"viability, T/C",[10],96.3%
same,"viability, T/C",[11],65.5%
same,"viability, T/C",[12],5.51%
same,"viability, T/C","second compound 1 µM, first compound 0.00316 µM",104%
same,"viability, T/C","second compound 1 µM, first compound 0.01 µM",95%
same,"viability, T/C",[13],101%
same,"viability, T/C",[14],87%
same,"viability, T/C",[15],61.1%
same,"viability, T/C",[16],4.94%
same,"viability, T/C","second compound 3.16 µM, first compound 0.00316 µM",106%
same,"viability, T/C","second compound 3.16 µM, first compound 0.01 µM",93.1%
same,"viability, T/C",[17],95.3%
same,"viability, T/C",[18],92.5%
same,"viability, T/C",[19],53%
same,"viability, T/C",[20],7.32%
same,"viability, T/C","second compound 10 µM, first compound 0.00316 µM",94.3%
same,"viability, T/C","second compound 10 µM, first compound 0.01 µM",95.5%
same,"viability, T/C",[21],107%
same,"viability, T/C",[22],91.7%
same,"viability, T/C",[23],50.3%
same,"viability, T/C",[24],5.62%
CCc1cc2c(N3CCc4c(cc(Cn5ccnc5)cc4-c4cn(C)nc4C(F)(F)F)C3=O)cc(C)nc2c(OC)n1 + Nc1ccc(C#CCN(C(=O)Cc2ncc(C(F)(F)F)cc2C(F)(F)F)c2ccc(F)cc2)nn1,IC50,second compound 0.0316 µM,> 10000 nM
same,IC50,second compound 0.1 µM,> 10000 nM
same,IC50,second compound 0.316 µM,> 10000 nM
same,IC50,second compound 1 µM,> 10000 nM
same,IC50,second compound 3.16 µM,> 10000 nM
same,IC50,second compound 10 µM,> 10000 nM
same,"viability, T/C",[1],91.4%
same,"viability, T/C",[2],91.6%
same,"viability, T/C",[3],88.7%
same,"viability, T/C",[4],85.9%
same,"viability, T/C","second compound 0.0316 µM, first compound 3.16 µM",82.5%
same,"viability, T/C","second compound 0.0316 µM, first compound 10 µM",66.7%
same,"viability, T/C",[5],99.5%
same,"viability, T/C",[6],87.1%
same,"viability, T/C",[7],80.8%
same,"viability, T/C",[8],94.8%
same,"viability, T/C","second compound 0.1 µM, first compound 3.16 µM",88.1%
same,"viability, T/C","second compound 0.1 µM, first compound 10 µM",66.8%
same,"viability, T/C",[9],91.7%
same,"viability, T/C",[10],88.8%
same,"viability, T/C",[11],98.4%
same,"viability, T/C",[12],93.2%
same,"viability, T/C","second compound 0.316 µM, first compound 3.16 µM",80%
same,"viability, T/C","second compound 0.316 µM, first compound 10 µM",68.1%
same,"viability, T/C",[13],86%
same,"viability, T/C",[14],94.7%
same,"viability, T/C",[15],101%
same,"viability, T/C",[16],94.9%
same,"viability, T/C","second compound 1 µM, first compound 3.16 µM",84%
same,"viability, T/C","second compound 1 µM, first compound 10 µM",64.1%
same,"viability, T/C",[17],97.6%
same,"viability, T/C",[18],87.9%
same,"viability, T/C",[19],86.5%
same,"viability, T/C",[20],104%
same,"viability, T/C","second compound 3.16 µM, first compound 3.16 µM",86.6%
same,"viability, T/C","second compound 3.16 µM, first compound 10 µM",70.8%
same,"viability, T/C",[21],98.9%
same,"viability, T/C",[22],79.9%
same,"viability, T/C",[23],97.4%
same,"viability, T/C",[24],82.2%
same,"viability, T/C","second compound 10 µM, first compound 3.16 µM",79.1%
same,"viability, T/C","second compound 10 µM, first compound 10 µM",65.1%
